ChEMBL document CHEMBL5055675, “Apoptosis Inducing 1,3,4-Oxadiazole Conjugates of Capsaicin: Their In Vitro Antiproliferative and In Silico Studies” (ACS Med Chem Lett, 2021)

Key:
Assay type in all cases: functional
HCT-116 = assay: Antiproliferative activity against human HCT-116 cells assessed as cell growth inhibition measured after 72 hrs by crystal violet staining based assay; settings: HCT-116, 72 h
SK-OV-3 = assay: Antiproliferative activity against human SK-OV-3 cells assessed as cell growth inhibition measured after 72 hrs by crystal violet staining based assay; settings: SK-OV-3, 72 h
NCI-H460 [1] = assay: Antiproliferative activity against human NCI-H460 cells assessed as cell growth inhibition measured after 72 hrs by crystal violet staining based assay; settings: NCI-H460, 72 h
NCI-H460 [2] = assay: Induction of apoptosis in human NCI-H460 cells assessed as early apoptotic cells measured after 72 hrs by Annexin V-FITC and propidium iodide staining based flow cytometry analysis (Rvb= 6.61%)
NCI-H460 [3] = assay: Induction of apoptosis in human NCI-H460 cells assessed as late apoptotic cells measured after 72 hrs by Annexin V-FITC and propidium iodide staining based flow cytometry analysis (Rvb= 6.93%)

SMILES	IC50 (HCT-116)	IC50 (SK-OV-3)	IC50 (NCI-H460 [1])	Activity (NCI-H460 [2])	Activity (NCI-H460 [3])
COc1cccc2c1C(=O)c1c(O)c3c(c(O)c1C2=O)C[C@@](O)(C(=O)CO)C[C@@H]3O[C@H]1C[C@H](N)[C@H](O)[C@H](C)O1 [DOXORUBICIN]	0.0578 µM	0.0258 µM	0.00429 µM	7.16%	
COc1cc(CNC(=O)CCCC/C=C/C(C)C)ccc1O [CAPSAICIN]	40.2 µM	22 µM	30.7 µM	7.17%	7.25%
